Converted amounts (≈) assume the structure as drawn.
Legend:
Format in all cases: functional
[1] = system: Mycobacterium tuberculosis; assay: Antimycobacterial activity against Mycobacterium tuberculosis H37Rv ATCC 27294 assessed as inhibition of bacterial growth measured after 7 days by resazurin microtitre assay; settings: H37Rv ATCC 27294, 168 h, time 7 day
[2] = system: Escherichia coli; assay: Antibacterial activity against Escherichia coli ATCC 25922 assessed as reduction in bacterial growth incubated for 16 to 18 hrs by microtiter plate assay; settings: time 16-18 hrs
[3] = system: Staphylococcus aureus; assay: Antibacterial activity against Staphylococcus aureus ATCC 29213 assessed as reduction in bacterial growth incubated for 16 to 18 hrs by microtiter plate assay; settings: time 16-18 hrs
[4] = system: Klebsiella pneumoniae; assay: Antibacterial activity against Klebsiella pneumoniae BAA 1705 assessed as reduction in bacterial growth incubated for 16 to 18 hrs by microtiter plate assay; settings: time 16-18 hrs
[5] = system: Acinetobacter baumannii; assay: Antibacterial activity against Acinetobacter baumannii BAA 1605 assessed as reduction in bacterial growth incubated for 16 to 18 hrs by microtiter plate assay; settings: time 16-18 hrs
[6] = system: Pseudomonas aeruginosa; assay: Antibacterial activity against Pseudomonas aeruginosa ATCC 27853 assessed as reduction in bacterial growth incubated for 16 to 18 hrs by microtiter plate assay; settings: time 16-18 hrs
[7] = system: Mycobacteroides abscessus; assay: Antimycobacterial activity against Mycobacterium abscessus ATCC 19977 assessed as inhibition of bacterial growth after 48 hrs by resazurin microtitre assay
[8] = system: Mycolicibacterium fortuitum; assay: Antimycobacterial activity against Mycobacterium fortuitum ATCC 6841 assessed as inhibition of bacterial growth after 48 hrs by resazurin microtitre assay
[9] = system: Mycobacteroides chelonae; assay: Antimycobacterial activity against Mycobacterium chelonae ATCC 6841 assessed as inhibition of bacterial growth after 48 hrs by resazurin microtitre assay

Structure (SMILES)	MIC [1]	MIC [2]	MIC [3]	MIC [4]	MIC [5]	MIC [6]	MIC [7]	MIC [8]	MIC [9]
COc1ccc(/C=C/C(=O)c2ccc(Nc3nc4ccccc4o3)cc2)cc1	32 µg/mL (≈ 86.4 µM)	> 64 µg/mL	> 64 µg/mL	> 64 µg/mL	> 64 µg/mL	> 64 µg/mL	> 64 µg/mL	> 64 µg/mL	> 64 µg/mL
CC(=O)N1N=C(c2ccccc2)CC1c1cc(Cl)c2oc(S)nc2c1 (stereo unspecified)	1.25 µg/mL (≈ 3.36 µM)	–	–	–	–	–	–	–	–
O=C(/C=C/c1ccccc1)c1ccc(Nc2nc3ccccc3o2)cc1	16 µg/mL (≈ 47 µM)	> 64 µg/mL	> 64 µg/mL	> 64 µg/mL	> 64 µg/mL	> 64 µg/mL	> 64 µg/mL	> 64 µg/mL	> 64 µg/mL
CN[C@@H]1[C@H](O[C@H]2[C@H](O[C@H]3[C@H](O)[C@@H](O)[C@H](N=C(N)N)[C@@H](O)[C@@H]3N=C(N)N)O[C@@H](C)[C@]2(O)C=O)O[C@@H](CO)[C@H](O)[C@H]1O [STREPTOMYCIN]	1 µg/mL (≈ 1.72 µM)	–	–	–	–	–	–	–	–
O=C(/C=C/c1ccc(Br)cc1)c1ccc(Nc2nc3ccccc3o2)cc1	64 µg/mL (≈ 153 µM)	> 64 µg/mL	> 64 µg/mL	> 64 µg/mL	> 64 µg/mL	> 64 µg/mL	> 64 µg/mL	> 64 µg/mL	> 64 µg/mL
COc1cc(/C=C/C(=O)c2ccc(Nc3nc4cc(C)ccc4o3)cc2)cc(OC)c1OC	16 µg/mL (≈ 36 µM)	> 64 µg/mL	> 64 µg/mL	> 64 µg/mL	> 64 µg/mL	> 64 µg/mL	> 64 µg/mL	> 64 µg/mL	> 64 µg/mL
NNC(=O)c1ccncc1 [ISONIAZID]	0.03 µg/mL (≈ 0.219 µM)	–	–	–	–	–	–	–	–
CC(=O)N1N=C(c2ccc3oc(-c4ccc(O)cc4)nc3c2)CC1c1cccs1 (stereo unspecified)	0.8 µg/mL (≈ 1.98 µM)	–	–	–	–	–	–	–	–
O=C(/C=C/c1ccccc1Br)c1ccc(Nc2nc3ccccc3o2)cc1	> 64 µg/mL	> 64 µg/mL	> 64 µg/mL	> 64 µg/mL	> 64 µg/mL	> 64 µg/mL	> 64 µg/mL	> 64 µg/mL	> 64 µg/mL
COc1ccc(/C=C/C(=O)c2ccc(Nc3nc4ccccc4o3)cc2)cc1OC	32 µg/mL (≈ 79.9 µM)	> 64 µg/mL	> 64 µg/mL	> 64 µg/mL	> 64 µg/mL	> 64 µg/mL	> 64 µg/mL	> 64 µg/mL	> 64 µg/mL
C[C@H]1COc2c(N3CCN(C)CC3)c(F)cc3c(=O)c(C(=O)O)cn1c23.C[C@H]1COc2c(N3CCN(C)CC3)c(F)cc3c(=O)c(C(=O)O)cn1c23.O [LEVOFLOXACIN]	–	0.0078 µg/mL	0.125 µg/mL	64 µg/mL	–	–	–	–	–
O=C(O)c1ccc(/C=C/C(=O)c2ccc(Nc3nc4ccccc4o3)cc2)cc1	> 64 µg/mL	> 64 µg/mL	> 64 µg/mL	> 64 µg/mL	> 64 µg/mL	> 64 µg/mL	> 64 µg/mL	> 64 µg/mL	> 64 µg/mL
COc1ccc(OC)c(C(=O)/C=C/c2ccc3nccnc3c2)c1	3.13 µg/mL (≈ 9.77 µM)	–	–	–	–	–	–	–	–
COc1cc(/C=C/C(=O)c2ccc(Nc3nc4cc([N+](=O)[O-])ccc4o3)cc2)cc(OC)c1OC	16 µg/mL (≈ 33.7 µM)	> 64 µg/mL	> 64 µg/mL	> 64 µg/mL	> 64 µg/mL	> 64 µg/mL	> 64 µg/mL	> 64 µg/mL	> 64 µg/mL
Cc1ccc(/C=C/C(=O)c2ccc(Nc3nc4ccccc4o3)cc2)cc1	> 64 µg/mL	> 64 µg/mL	> 64 µg/mL	> 64 µg/mL	> 64 µg/mL	> 64 µg/mL	> 64 µg/mL	> 64 µg/mL	> 64 µg/mL
O=C(/C=C/c1ccco1)c1ccc(Nc2nc3ccccc3o2)cc1	32 µg/mL (≈ 96.9 µM)	> 64 µg/mL	> 64 µg/mL	> 64 µg/mL	> 64 µg/mL	> 64 µg/mL	> 64 µg/mL	> 64 µg/mL	> 64 µg/mL
O=C(/C=C/c1ccccc1Cl)c1ccc(Nc2nc3ccccc3o2)cc1	> 64 µg/mL	> 64 µg/mL	> 64 µg/mL	> 64 µg/mL	> 64 µg/mL	> 64 µg/mL	> 64 µg/mL	> 64 µg/mL	> 64 µg/mL
O=C(/C=C/c1ccccc1F)c1ccc(Nc2nc3ccccc3o2)cc1	> 64 µg/mL	> 64 µg/mL	> 64 µg/mL	> 64 µg/mL	> 64 µg/mL	> 64 µg/mL	> 64 µg/mL	> 64 µg/mL	> 64 µg/mL

From ChEMBL document CHEMBL5143690, “Identification of nitrofuranylchalcone tethered benzoxazole-2-amines as potent inhibitors of drug resistant Mycobacterium tuberculosis demonstrating bactericidal efficacy” (Bioorg Med Chem, 2022)
